Test results as given in the supplement of paper PMC10290057.
Structures can show the parent of a compound that is named as a salt.

Legend:
HCT116 [1] = assay: efficacy (fitted maximal change in viability relative to DMSO control); higher = less cytotoxic (negative = loss of viability); settings: 48 h
HCT116 [2] = assay: AC50 cell viability (CellTiter-Glo); higher = less potent; settings: 48 h
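Wherever AC50 cell viability (CellTiter-Glo) is given: HCT116 colorectal carcinoma cells screened at five concentrations per compound, luminescent viability scaled between DMSO wells and empty wells on each plate, curves fitted per compound.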
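Wherever efficacy (fitted maximal change in viability relative to DMSO control) is given: Luminescence-based viability readout, five doses per compound, normalized against on-plate DMSO and empty-well controls, followed by dose-response curve fitting for every drug.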

SMILES	efficacy (HCT116 [1]) [%]	AC50 cell viability (HCT116 [2]) [µM]
C=C1CC[C@@H]2[C@](C)(CO)[C@H](O)CC[C@@]2(C)[C@@H]1C/C=C1/C(=O)OC[C@H]1O [Andrographolide]	-68.1	4.68
C[C@@H](NCCCc1cccc(C(F)(F)F)c1)c1cccc2ccccc12 [Cinacalcet hydrochloride]	-92.6	16.6
CCOC(CN1C(=O)[C@](CC(=O)Nc2ccc(C)cc2)(NC(=O)Nc2ccc(C)cc2)c2ccccc21)OCC [AG-041R]	-78.5	23.5
COc1cc(Nc2ncc(F)c(Nc3ccc4c(n3)NC(=O)C(C)(C)O4)n2)cc(OC)c1OC [R-406]	-30.6	3.72
COc1ccc2c(c1)[C@]1(C[C@H]1c1ccc3c(/C=C/c4ccc(CN5C[C@@H](C)O[C@@H](C)C5)cc4)n[nH]c3c1)C(=O)N2	-83.6	13.2
CC(C)(C)OC(=O)Nc1ccc(-c2cc(C(=O)NCCCCCCC(=O)NO)no2)cc1 [ISOX]	-91.5	1.86
CC(C)(C)c1cc(NC(=O)Nc2ccc(-c3cn4c(n3)sc3cc(OCCN5CCOCC5)ccc34)cc2)no1 [Quizartinib]	-74.1	13.2
CC1Oc2cc(cnc2N)-c2c(nn(C)c2C#N)CN(C)C(=O)c2ccc(F)cc21 (centres undefined) [Lorlatinib]	-46.2	14.8
O=C(c1ccc(/C=C/c2n[nH]c3ccccc23)cc1)N1CCNCC1 [KW-2449]	-96.6	8.33
CC1(C)OCCn2c1nc1c(N3CCOCC3)nc(-c3cnc(N)nc3)nc12 [GDC-0084]	-58.4	0.833
COc1c(C)cnc(Cn2cnc3c(Cl)nc(N)nc32)c1C [CNF-2024]	-57	0.148
CNCc1ccc(-c2[nH]c3cc(F)cc4c3c2CCNC4=O)cc1 [Rucaparib]	-101	18.6
Oc1ccc(OCc2ccccc2)cc1 [Monobenzone]	-47.7	18.6
C#CCC(Cc1cnc2nc(N)nc(N)c2n1)c1ccc(C(=O)N[C@@H](CCC(=O)O)C(=O)O)cc1 (some centres undefined) [Pralatrexate]	-91.1	0.00468
COC1=CC=C(C(=C1)OC(C)C)C/2=N/[C@@H]([C@@H](N2C(=O)N3CCNC(=O)C3)C4=CC=C(Cl)C=C4)C5=CC=C(Cl)C=C5 [Nutlin-3]	-98.3	23.5
CCN1C(=O)C\N=C/2N\C=C(/N=C12)C3=C(C)N=C(C=C3)C4=NN=C[NH]4 [CC-115]	-71	7.42
CC1(C)OC/2=C(\[C@H](NCC3=CC=CC=C3)[C@@H]1O)C(=O)C4=CC=CC=C4C2=O	-96.8	2.95
Cn1cnc(-c2cc3nccc(Oc4ccc(NC(=S)NC(=O)Cc5ccccc5)cc4F)c3s2)c1 [MGCD-265]	-59.3	16.6
Cc1cc(O)c(-c2ccc([C@@H](C)CN(C)C)cc2)c2c1[nH]c(=O)c1sccc12 [OTS964]	-63.1	0.0295
CC(=O)Oc1ccccc1C(=O)Nc1ncc([N+](=O)[O-])s1 [Nitazoxanide]	-80.3	23.5
CN1CCN(CC1)\C2=N\C3=C(NC4=C2C=CC=C4)C=CC(=C3)Cl [Clozapine]	-99.6	20.9

SMILES	efficacy (HCT116 [1]) [%]	AC50 cell viability (HCT116 [2]) [µM]
CCn1c(-c2nonc2N)nc2cnc(Oc3cccc(NC(=O)c4ccc(OCCN5CCOCC5)cc4)c3)cc21	-79.2	10.5
Cc1c(C(=O)Nc2cccc(C(F)(F)F)c2)cc(-c2ccccc2)n1CCCN1CCOCC1	-75.8	20.9
CC(=O)c1cc2c(o1)C(=O)c1ccccc1C2=O [Napabucasin]	-93.8	0.934
Cc1cc(-c2ncc(CC(=O)Nc3ccc(-c4cnccn4)cn3)cc2C)ccn1 [LGK-974]	-52.5	16.6
ClC1=CC=C(C=C1)C(C#N)C2=C(Cl)C=C(C=C2Cl)N3\N=C/C(=O)NC3=O (centres undefined) [Diclazuril]	-56	23.5
CC[C@]12\C=C/CN3CC[C@]4([C@@H](N(C)C5=C4C=C(C(=C5)OC)[C@]6(CC7C[C@H](CN(C7)CC8=C6[NH]C9=C8C=CC=C9)C(C)(F)F)C(=O)OC)[C@](O)([C@@H]1OC(C)=O)C(=O)OC)[C@H]23 (some centres undefined) [Vinflunine (Tartrate)]	-67.8	0.209
Cc1ccc(NC(=O)c2ccc(CN3CCNCC3)cc2)cc1Nc1nccc(-c2cccnc2)n1	-93.9	18.6
COc1cc(O)c2c(c1)C1OC1C[C@H](O)[C@H](O)C(=O)/C=C\C[C@H](C)OC2=O (some centres undefined) [Hypothemycin]	-72	3.72
Cn1cc(CNCC2CCN(c3ncc(C(=O)NO)cn3)CC2)c2ccccc21 [Quisinostat]	-81.9	0.0742
CC[C@@H]1C(=O)N(C)c2cnc(Nc3ccc(C(=O)NC4CCC(N5CCN(CC6CC6)CC5)CC4)cc3OC)nc2N1C(C)C (some centres undefined) [Volasertib]	-89.8	0.0661
CC[C@@]1([C@@H]2O[C@@H]([C@H]3O[C@@](O)(CO)[C@H](C)C[C@@H]3C)C[C@@H]2C)CC[C@H]([C@]2(C)CC[C@]3(C[C@H](O)[C@@H](C)[C@@H]([C@@H](C)[C@@H](OC)[C@H](C)C(=O)[O-])O3)O2)O1 [Monensin sodium salt]	-47.4	0.456
CN1CCN(c2ccc(OC(F)(F)F)c(Nc3ncc4c(n3)-c3c(c(C(N)=O)nn3CCO)CC4)c2)CC1 [NMS-P937]	-63.9	0.0661
CCC(=O)Nc1cccc(Oc2nc(Nc3ccc(N4CCN(C)CC4)cc3OC)ncc2Cl)c1 [WZ-4003]	-65.7	6.61
CN1CCN(Cc2ccc(Nc3ncc(Cl)/c(=N\c4ccccc4[S+](=O)([O-])N(C)C)[nH]3)cc2)CC1 [TP-0903]	-65.8	0.027
CN(C)/N=N/c1nc[nH]c1C(N)=O [Dacarbazine]	-45.8	10.5
C[N]1C=C(C=N1)C2=CC=C3N=CC\4=C(N(C(=O)\C=C4)C5=CC6=C(CCN6C(=O)C=C)C=C5)C3=C2	-78.5	0.512
O=c1[nH]c2ccccc2n1CCCN1CCC(n2c(=O)[nH]c3cc(Cl)ccc32)CC1 [Domperidone]	-68	18.6
Cc1ccc(-c2cc(C(F)(F)F)nn2-c2ccc([S+](N)(=O)[O-])cc2)cc1 [Celecoxib]	-77.8	18.6
Cc1[nH]c(/C=C2\C(=O)Nc3ccc([S+](=O)([O-])N(C)c4cccc(Cl)c4)cc32)c(C)c1C(=O)N1CCN(C)CC1 [SU-MI-2]	-113	14.8
O=[S+]([O-])(c1cccc2cnccc12)N1CCCNCC1 [Fasudil hydrochloride]	-49.1	18.6
Oc1cccc(-c2nc(N3CCOCC3)c3oc4ncccc4c3n2)c1 [PI-103]	-57.3	1.32
